Laboratory results: patent publication US5166204A, “Isoindole derivatives and salts thereof and antitumor agent comprising the same” (Toyama Chemical Co., Ltd., priority 1989, dated 1992)
In brackets after ≈: the same amount, converted by molar mass. Where a name gives a salt, the structure may show the parent alone. Read-outs that look alike come from different tables or passages of the source. Each block holds one compound with its values, some of them ahead of it.

What was measured:
[1] = test system: L-1210 ascites tumor; experiment: Effect on L-1210 ascites tumor (survival of tumor-transplanted mice); assay type: in vivo, CDF1 strain mice; settings: Mus musculus, L1210, ip, 720 h, survival observed 30 days, read-out: prolongation of survival time T/C; for response vs control in vivo at 25 mg/kg: 25 mg/kg i.p.; for response vs control in vivo at 5 mg/kg: 5 mg/kg i.p.; for response vs control in vivo at 1 mg/kg: 1 mg/kg i.p.
Experimental: (b) Effect on L-1210 Ascites Tumor
1×10^5 L-1210 cells were intraperitoneally transplanted to CDF1 strain mice in groups of 6 members (male, 5-week old, weight =about 25 g) on day 0. A test compound dissolved in an aqueous 5% glucose solution was intraperitoneally administered to the test group of the above mice twice on day 1 and day 5. Only the aqueous 5% glucose solution was administered to the control group. Incidentally, the 25 mg/kg administration of the test compound No. 30 was effected only once on day 1. There were examined (a) the average survival days of the test group and (b) the average survival days of the control group. The examination period for survival days was 30 days. From the (a) and (b) was calculated a prolongation of survival time [T/C (%)], using the following equation: […]

[2] = test system: HeLa S-3 cells; experiment: HeLa S-3 cell growth inhibition test; assay type: cell-based; settings: Homo sapiens, 96 h; HeLa S-3 cells, 37° C., 4 days, Giemsa's staining; read-out: minimum growth inhibition concentration (MIC)
Experimental: (a) HeLa S-3 Cell Growth Inhibition Test
A test compound was appropriately diluted with a liquid medium (a minimum essential medium containing a 10% fecal calf serum). The resulting liquid was poured into each well of a 96-well micro titer plate, in an amount of 0.1 ml/well. Then, HeLa S-3 cells were diluted with the same liquid medium so that the cell concentration became 2×10^4 cells/ml, and the resulting liquid was poured into each well of the above plate in an amount of 0.1 ml/well. The resulting plate was allowed to stand in a CO2 gas incubator of 37° C. for 4 days, to effect incubation. After the incubation, the supernatant liquid in each well was removed and fixation by ethanol was effected for 10 minutes. The fixed cells were tinted with a Giemsa's staining solution to determine the minimum growth inhibition concentration (MIC) of test compound for HeLa S-3 cells.

[3] = test system: Ehrlich solid cancer; experiment: Effect on Ehrlich solid cancer (tumor weight in mice); assay type: in vivo, ddY strain mice; settings: Mus musculus, iv, 240 h; for response vs control in vivo at 14 mg/kg: 14 mg/kg i.v.; for response vs control in vivo at 10 mg/kg: 10 mg/kg i.v.; for response vs control in vivo at 50 mg/kg: 50 mg/kg i.v.; for response vs control in vivo at 7 mg/kg: 7 mg/kg i.v.
Experimental: (c) Effect on Ehrlich Solid Cancer 5×10^6 Ehrlich cells were transplanted to ddY strain mice in groups of 7 members (male, 5-week old, weight=about 25 g) subcutaneously at the left groin on day 0. […] Only the aqueous 5% glucose solution was administered to the control group. […] From the (a) and (b) was calculated T/C (%), using the following equation: T/C (%)=(a/b)×100

[4] = twice on day 1 and day 5, day 10, read-out: T/C (average tumor weight, treated/control)
[5] = only once on day 1, day 10, read-out: T/C (average tumor weight, treated/control)

SMILES: COc1ccc2[nH]c3ccc4c(c3c2c1)C(=O)N(CCN(C)C)C4=O [compound 15]
response vs control in vivo at 25 mg/kg ([1]; twice on day 1 and day 5): 160%
MIC [2]: 3.13 µg/mL (≈ 9.28 µM)

MIC [2]: 0.31 µg/mL (≈ 0.866 µM)
SMILES: CN(C)CCN1C(=O)c2cc(Cl)c3[nH]c4ccc(O)cc4c3c2C1=O [compound 32]
response vs control in vivo at 25 mg/kg ([3]; 25 mg/kg i.v., only once on day 1, day 10, read-out: T/C (average tumor weight, treated/control)): 9%

SMILES: CN(C)CCN1C(=O)c2ccc3[nH]c4ccc(Cl)cc4c3c2C1=O [compound 9]
response vs control in vivo at 25 mg/kg ([1]; twice on day 1 and day 5): 131%
MIC [2]: 3.13 µg/mL (≈ 9.16 µM)

MIC [2]: 0.16 µg/mL
SMILES: CN(C)CCN1C(=O)c2cc(C3CCC3)c3[nH]c4ccc(O)cc4c3c2C1=O.Cl [compound 59, N-(2-dimethylaminoethyl)-1-cyclobutyl-6-hydroxycarbazole-3,4-dicarboximide hydrochloride]
response vs control in vivo at 14 mg/kg [3, 4]: 12%

MIC [2]: 0.04 µg/mL (≈ 0.114 µM)
SMILES: CCc1cc2c(c3c1[nH]c1ccc(O)cc13)C(=O)N(CCN(C)C)C2=O [compound 39]
response vs control in vivo at 10 mg/kg [3, 4]: 20%

SMILES: COc1ccc2[nH]c3cc(C)c4c(c3c2c1)C(=O)N(CCN(C)C)C4=O [compound 17]
response vs control in vivo at 5 mg/kg ([1]; twice on day 1 and day 5): 126%
response vs control in vivo at 25 mg/kg ([1]; twice on day 1 and day 5): 129%
MIC [2]: 0.16 µg/mL (≈ 0.455 µM)

MIC [2]: 0.2 µg/mL
SMILES: CN(C)CCN1C(=O)c2cc(C3CC3)c3[nH]c4ccc(O)cc4c3c2C1=O [compound 49, N-(2-dimethylaminoethyl)-1-cyclopropyl-6-hydroxycarbazole-3,4-dicarboximidehydrochloride]
response vs control in vivo at 14 mg/kg [3, 4]: 19%

MIC [2]: 0.16 µg/mL (≈ 0.474 µM)
SMILES: CCNCCN1C(=O)c2cc(C)c3[nH]c4ccc(O)cc4c3c2C1=O [compound 71]
response vs control in vivo at 10 mg/kg [3, 4]: 16%

SMILES: Cc1cc2c(c3c1[nH]c1ccccc13)C(=O)N(CCN(C)C)C2=O [compound 2]
response vs control in vivo at 5 mg/kg ([1]; twice on day 1 and day 5): 180%
MIC [2]: 0.16 µg/mL (≈ 0.498 µM)

SMILES: CN(C)CCN1C(=O)c2ccc3[nH]c4cc(O)c(O)cc4c3c2C1=O [compound 31]
response vs control in vivo at 50 mg/kg [3, 5]: 31%
response vs control in vivo at 5 mg/kg ([1]; twice on day 1 and day 5): 176%

SMILES: CN(C)CCN1C(=O)c2ccc3[nH]c4ccccc4c3c2C1=O [compound 1]
response vs control in vivo at 50 mg/kg ([3]; daily for six consecutive days (day 1 to 6), day 10, read-out: T/C (average tumor weight, treated/control)): 18%
response vs control in vivo at 25 mg/kg ([1]; twice on day 1 and day 5): 137%
MIC [2]: 3.13 µg/mL (≈ 10.2 µM)

MIC [2]: 0.08 µg/mL (≈ 0.226 µM)
SMILES: Cc1cc2c(c3c1sc1ccc(O)cc13)C(=O)N(CCN(C)C)C2=O [compound 61]
response vs control in vivo at 10 mg/kg [3, 5]: 27%

MIC [2]: 0.06 µg/mL (≈ 0.17 µM)
SMILES: COc1cc2c(c3c1[nH]c1ccc(O)cc13)C(=O)N(CCN(C)C)C2=O [compound 38]
response vs control in vivo at 7 mg/kg [3, 4]: 12%

MIC [2]: 0.16 µg/mL
SMILES: CCN(CC)CCN1C(=O)c2cc(OC)c3[nH]c4ccc(O)cc4c3c2C1=O.Cl [compound 70, N-(2-diethylaminoethyl)-6-hydroxy-1-methoxycarbazole-3,4-dicarboximide hydrochloride]
response vs control in vivo at 10 mg/kg [3, 4]: 18%

MIC [2]: 0.31 µg/mL (≈ 0.776 µM)
SMILES: CN(C)CCN1C(=O)c2cc(-c3ccccc3)c3[nH]c4ccc(O)cc4c3c2C1=O [compound 27]
response vs control in vivo at 30 mg/kg ([3]; 30 mg/kg i.v., twice on day 1 and day 5, day 10, read-out: T/C (average tumor weight, treated/control)): 15%

SMILES: CN(C)CCN1C(=O)c2ccc3[nH]c4cc5c(cc4c3c2C1=O)OCO5 [compound 22]
response vs control in vivo at 5 mg/kg ([1]; twice on day 1 and day 5): 143%
response vs control in vivo at 25 mg/kg ([1]; twice on day 1 and day 5): 160%
MIC [2]: 0.16 µg/mL (≈ 0.455 µM)

SMILES: CN(C)CCN1C(=O)c2ccc3[nH]c4ccc(O)cc4c3c2C1=O.Cl [compound 23, N-(2-dimethylaminoethyl)-6-hydroxycarbazole-3,4-dicarboximide hydrochloride]
response vs control in vivo at 15 mg/kg ([3]; 15 mg/kg i.v., twice on day 1 and day 5, day 10, read-out: T/C (average tumor weight, treated/control)): 10%
response vs control in vivo at 1 mg/kg ([1]; twice on day 1 and day 5): 128%
response vs control in vivo at 5 mg/kg ([1]; twice on day 1 and day 5): > 272%
MIC [2]: 0.8 µg/mL

MIC [2]: 0.16 µg/mL (≈ 0.424 µM)
SMILES: CC1CC1c1cc2c(c3c1[nH]c1ccc(O)cc13)C(=O)N(CCN(C)C)C2=O (centres unmarked) [compound 74]
response vs control in vivo at 10 mg/kg [3, 4]: 19%

SMILES: Cc1cc2c(c3c1[nH]c1ccc(O)cc13)C(=O)N(CCN(C)C)C2=O.Cl [compound 24, N-(2-dimethylaminoethyl)-6-hydroxy-1-methylcarbazole-3,4-dicarboximide hydrochloride]
response vs control in vivo at 5 mg/kg ([3]; 5 mg/kg i.v., twice on day 1 and day 5, day 10, read-out: T/C (average tumor weight, treated/control)): 12%
response vs control in vivo at 1 mg/kg ([1]; twice on day 1 and day 5): > 377%
MIC [2]: 0.125 µg/mL

SMILES: Cc1cc2[nH]c3ccccc3c2c2c1C(=O)N(CCN(C)C)C2=O [compound 3]
response vs control in vivo at 25 mg/kg ([1]; twice on day 1 and day 5): 167%
MIC [2]: 0.1 µg/mL (≈ 0.311 µM)

SMILES: CN(C)CCN1C(=O)c2ccc3c(c2C1=O)c1cc(O)ccc1n3C [compound 30]
response vs control in vivo at 5 mg/kg ([1]; twice on day 1 and day 5): 156%
response vs control in vivo at 25 mg/kg ([1]; only once on day 1): 172%
MIC [2]: 0.1 µg/mL (≈ 0.296 µM)

MIC [2]: 0.063 µg/mL
SMILES: CCN(CC)CCN1C(=O)c2cc(C)c3[nH]c4ccc(O)cc4c3c2C1=O.Cl [compound 42, N-(2-diethylaminoethyl)-6-hydroxy-1-methylcarbazole-3,4-dicarboximide hydrochloride]
response vs control in vivo at 7 mg/kg [3, 4]: 18%

MIC [2]: 0.25 µg/mL (≈ 0.773 µM)
SMILES: CNCCN1C(=O)c2cc(C)c3[nH]c4ccc(O)cc4c3c2C1=O [compound 69]
response vs control in vivo at 10 mg/kg [3, 4]: 19%

SMILES: CN(C)CCN1C(=O)c2ccc3[nH]c4cc(O)ccc4c3c2C1=O [compound 28]
response vs control in vivo at 5 mg/kg ([1]; twice on day 1 and day 5): 176%
response vs control in vivo at 25 mg/kg ([1]; twice on day 1 and day 5): 379%
MIC [2]: 0.8 µg/mL (≈ 2.47 µM)
